Experimental data: patent publication US11352350B2, “IRAK degraders and uses thereof” (Kymera Therapeutics, Inc., priority 2018, dated 2022)
Where two headings read alike, the source gives them in different places.

What was measured:
[1] = test system: OCI-LY10; assay: CTG Cell Viability Assay - OCI-LY10; format: cell-based, human; settings: Homo sapiens, OCI-LY10, 4 days, read-out: CTG Cell Viability Assay - OCI-LY10: Average external-IC50
In short: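 OCI-LY10 cells exposed to 9-dose, 1:3 dilutions from 10 μM top (0.2% DMSO) for 4 days at 37° C, 5% CO2. Viability by CellTiter-Glo luminescence; IC50 from three-parameter logistic fit.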

[2] = target: IRAK4 (Homo sapiens (Human), UniProt Q9NWZ3); assay: IRAK4 MSD degradation in OCI-LY10; format: cell-based
Sequence of IRAK4 (Q9NWZ3 whole entry): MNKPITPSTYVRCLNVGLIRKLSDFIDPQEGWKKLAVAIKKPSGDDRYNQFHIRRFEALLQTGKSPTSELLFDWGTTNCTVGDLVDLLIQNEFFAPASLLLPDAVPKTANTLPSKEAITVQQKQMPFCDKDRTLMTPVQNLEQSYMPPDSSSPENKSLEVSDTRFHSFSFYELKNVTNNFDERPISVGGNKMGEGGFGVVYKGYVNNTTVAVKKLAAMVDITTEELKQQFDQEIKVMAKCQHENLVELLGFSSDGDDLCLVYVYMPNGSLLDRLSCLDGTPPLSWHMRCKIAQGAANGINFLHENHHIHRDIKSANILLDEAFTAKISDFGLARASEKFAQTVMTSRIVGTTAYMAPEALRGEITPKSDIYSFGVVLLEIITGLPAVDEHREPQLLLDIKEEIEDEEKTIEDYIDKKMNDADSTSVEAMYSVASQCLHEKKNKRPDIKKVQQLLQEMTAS
In short: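 OCI-LY10 cells treated with 8-point 1:3 dilutions (top 1 to 10 μM final) for 4 to 24 h at 37° C. Lysate IRAK4 measured by MSD sandwich immunoassay (2H9 capture, Y279 detection, SULFO-TAG anti-rabbit). DC50 from three-parameter logistic fit.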

[3] = OCI-LY10, 4 hrs, MSD, read-out: IRAK4 MSD degradation in OCI-LY10 at 4 hrs: Average external-Abs DC50
[4] = OCI-LY10, 24 hrs, MSD, read-out: IRAK4 MSD degradation in OCI-LY10 at 24 hrs: Average external-Abs DC50
[5] = OCI-LY10, 4 hrs, read-out: IRAK4 MSD degradation in OCI-LY10 at 4 hrs: DC50
[6] = OCI-LY10, 24 hrs, read-out: IRAK4 MSD degradation in OCI-LY10 at 24 hrs: DC50

Row | SMILES | IC50 ([1]; OCI-Ly10, 96 h) [µM] | DC50 [2, 3] [µM] | DC50 [2, 4] [µM] | IC50 ([1]; 96 h) [µM] | DC50 [2, 5] [µM] | DC50 [2, 6] [µM]
1 | CC[C@@H]1[C@H](F)C(=O)N[C@@H]1COc1ncc(C#C[C@H]2CC[C@H](CN(C)CCCOCCNc3cccc4c3C(=O)N(C3CCC(=O)NC3=O)C4=O)CC2)c2cc(C(N)=O)c(OC)cc12 (stereo partly drawn) [I-387] | < 0.05 | 0.1 to 1 |  |  |  | 
2 | CN(Cc1ccc(-n2cc(NC(=O)c3coc(-c4ccnc(NCC5CC5)c4)n3)c(C(F)F)n2)cc1)C1CCN(Cc2cccc3c2n(C)c(=O)n3C2CCC(=O)NC2=O)CC1 (stereo not drawn) [I-389] | < 0.05 | 0.01 to 0.1 | 0.01 to 0.1 |  |  | 
3 | CN[C@@H](C)C(=O)N[C@H](C(=O)N1Cc2cc(OCCOCCOCCOCCNC[C@H]3CC[C@H](n4cc(NC(=O)c5coc(-c6ccnc(NCC7CC7)c6)n5)c(C(F)F)n4)CC3)ccc2C[C@H]1C(=O)N[C@@H]1CCCc2ccccc21)C(C)(C)C [I-390] |  | > 1 |  | > 1 |  | 
4 | NCC#Cc1ccc(-n2cc(NC(=O)c3coc(-c4ccnc(NCC5CC5)c4)n3)c(C(F)F)n2)cc1 [I-391, N-[l-[4-(3-aminoprop-1-ynyl)phenyl]-3-(difluoromethyl)pyrazol-4-yl]-2-[2-(cyclopropylmethylamino)-4-pyridyl]oxazole-4-carboxamide] | > 1 | > 1 | > 1 |  |  | 
5 | CN(CCCOCCCNc1cccc2c1C(=O)N(C1CCC(=O)NC1=O)C2=O)Cc1ccc(-n2cc(NC(=O)c3coc(-c4ccnc(NCC5CC5)c4)n3)c(C(F)F)n2)cc1 (stereo not drawn) [I-392] | 0.1 to 0.5 | 0.1 to 1 | 0.01 to 0.1 |  |  | 
6 | O=C1CCC(N2C(=O)c3cccc(NCCCOC[C@@H]4CN(Cc5ccc(-n6cc(NC(=O)c7coc(-c8ccnc(NCC9CC9)c8)n7)c(C(F)F)n6)cc5)CCO4)c3C2=O)C(=O)N1 (stereo partly drawn) [I-393] | 0.05 to 0.1 | 0.1 to 1 | 0.01 to 0.1 |  |  | 
7 | CN(C(=O)c1coc(-c2ccnc(NCC3CC3)c2)n1)c1cn([C@H]2CC[C@H](CN(C)C3CCN(Cc4cccc5c4n(C)c(=O)n5C4CCC(=O)NC4=O)CC3)CC2)nc1C(F)F (stereo partly drawn) [I-395] | > 1 | 0.1 to 1 |  |  |  | 
8 | CN(CCCOCCCNc1cccc2c1C(=O)N(C1CCC(=O)NC1=O)C2=O)C[C@H]1CC[C@H](n2cc(NC(=O)c3coc(-c4ccnc(N5CCOCC5)c4)n3)c(C(F)F)n2)CC1 (stereo partly drawn) [I-397] | 0.05 to 0.1 | 0.1 to 1 | 0.1 to 1 |  |  | 
9 | CN(CCCOCCCNc1cccc2c1C(=O)N(C1CCC(=O)NC1=O)C2=O)C[C@H]1CC[C@H](n2cc(NC(=O)c3coc(-c4ccnc(N[C@H]5CCCC[C@H]5O)c4)n3)c(C(F)F)n2)CC1 (stereo partly drawn) [I-398] | 0.05 to 0.1 | 0.01 to 0.1 | 0.01 to 0.1 |  |  | 
10 | CN(CCCOCCCNc1cccc2c1C(=O)N(C1CCC(=O)NC1=O)C2=O)C[C@H]1CC[C@H](n2cc(NC(=O)c3coc(-c4ccnc(N[C@@H]5CCCC[C@@H]5O)c4)n3)c(C(F)F)n2)CC1 (stereo partly drawn) [I-399] | < 0.05 | 0.01 to 0.1 | < 0.01 |  |  | 
11 | CN(C[C@H]1CC[C@H](n2cc(NC(=O)c3coc(-c4ccnc(NCC5CC5)c4)n3)c(C(F)F)n2)CC1)C1CCN(Cc2cccc3c2n(C)c(=O)n3C2CCC(=O)NC2=O)CC1 (stereo partly drawn) [I-400] | < 0.05 | < 0.01 |  |  |  | 
12 | CN(CCCOCCCNc1cccc2c1C(=O)N(C1CCC(=O)NC1=O)C2=O)C[C@H]1CC[C@H](n2cc(N(C)C(=O)c3coc(-c4ccnc(NCC5CC5)c4)n3)c(C(F)F)n2)CC1 (stereo partly drawn) [I-401] | 0.5 to 1 | 0.1 to 1 | > 1 |  |  | 
13 | O=C1CCC(N2C(=O)c3cccc(NCCCOC4CCN(Cc5ccc(-n6cc(NC(=O)c7cnn8ccc(N9CCOCC9)nc78)c(C(F)F)n6)cc5)CC4)c3C2=O)C(=O)N1 (stereo not drawn) [I-403] | 0.05 to 0.1 | > 1 | 0.01 to 0.1 |  |  | 
14 | CN(C[C@H]1CC[C@H](n2cc(NC(=O)c3cnn4ccc(N5CCOCC5)nc34)c(C(F)F)n2)CC1)C1CCN(CCc2cccc3c2n(C)c(=O)n3C2CCC(=O)NC2=O)CC1 (stereo partly drawn) [I-404] | < 0.05 | < 0.01 |  |  |  | 
15 | O=C(Nc1cn([C@H]2CC[C@H](CNC[C@H]3CC[C@H](n4cc(NC(=O)c5cnn6ccc(N7CCOCC7)nc56)c(C(F)F)n4)CC3)CC2)nc1C(F)F)c1cnn2ccc(N3CCOCC3)nc12 [I-408, N-[3-(difluoromethyl)-1-[4-[[[4-[3-(difluoromethyl)-4-[(5-morpholinopyrazolo[1,5-a]pyrimidine-3-carbonyl)amino]pyrazol-1-yl]cyclohexyl]methylamino]methyl]cyclohexyl]pyrazol-4-yl]-5-morpholino-pyrazol [1,5-a] pyrimidine-3-carboxamide] | > 1 | > 1 | > 1 |  |  | 
16 | Cn1c(=O)n(C2CCC(=O)NC2=O)c2cccc(-c3cccc(CCCOCc4ccc(-n5cc(NC(=O)c6cnn7ccc(N8CCOCC8)nc67)c(C(F)F)n5)cc4)c3)c21 (stereo not drawn) [I-409] | > 1 | > 1 |  |  |  | 

Row | SMILES | IC50 ([1]; OCI-Ly10, 96 h) [µM] | DC50 [2, 3] [µM] | DC50 [2, 4] [µM] | IC50 ([1]; 96 h) [µM] | DC50 [2, 5] [µM] | DC50 [2, 6] [µM]
17 | CN(CCC#CCN)C[C@H]1CC[C@H](n2cc(NC(=O)c3cnn4ccc(N5CCOCC5)nc34)c(C(F)F)n2)CC1 [I-412, N-[1-[4-[[5-aminopent-3-ynyl(methyl)amino]methyl]cyclohexyl]-3-(difluoromethyl)pyrazol-4-yl]-5-morpholino-pyrazolo [1,5-a]pyrimidine-3-carboxamide] | > 1 | > 1 | > 1 |  |  | 
18 | CN(CCCOCCCNc1cccc2c1C(=O)N(C1CCC(=O)NC1=O)C2=O)C[C@H]1CC[C@H](n2cc(NC(=O)c3cnn4ccc(NCC5CC5)nc34)c(C(F)F)n2)CC1 (stereo partly drawn) [I-437] | 0.1 to 0.5 | 0.01 to 0.1 | 0.01 to 0.1 |  |  | 
19 | O=C1CCC(N2C(=O)c3cccc(NCCCOC4CCN(Cc5ccc(-n6cc(NC(=O)c7cnn8ccc(N9C[C@H]%10CC9CO%10)nc78)c(C(F)F)n6)cc5)CC4)c3C2=O)C(=O)N1 (stereo partly drawn) [I-438] | 0.05 to 0.1 | 0.1 to 1 | 0.01 to 0.1 |  |  | 
20 | O=C1CCC(N2C(=O)c3cccc(NCCCOCCCS(=O)(=O)NC(=O)[C@H]4CC[C@H](n5cc(NC(=O)c6cnn7ccc(N8C[C@H]9CC8CO9)nc67)c(C(F)F)n5)CC4)c3C2=O)C(=O)N1 (stereo partly drawn) [I-440] | > 1 | 0.1 to 1 | > 1 |  |  | 
21 | O=C1CCC(N2C(=O)c3ccnc(NCCCOC4CCN(Cc5ccc(-n6cc(NC(=O)c7cnn8ccc(N9CCOCC9)nc78)c(C(F)F)n6)cc5)CC4)c3C2=O)C(=O)N1 (stereo not drawn) [I-441] | > 1 | 0.01 to 0.1 | 0.01 to 0.1 |  |  | 
22 | O=C1CCC(N2C(=O)c3cccc(NCC(=O)N4CC5(CCN(C[C@H]6CC[C@H](n7cc(NC(=O)c8cnn9ccc(N%10CCOCC%10)nc89)c(C(F)F)n7)CC6)CC5)C4)c3C2=O)C(=O)N1 (stereo partly drawn) [I-443] | < 0.05 |  |  |  | < 0.01 | < 0.01
23 | O=C1CCC(N2C(=O)c3cccc(NCCCOC4CCN(C[C@H]5OC[C@H](n6cc(NC(=O)c7cnn8ccc(N9CCOCC9)nc78)c(C(F)F)n6)CO5)CC4)c3C2=O)C(=O)N1 (stereo partly drawn) [I-451, N-[3-(difluoromethyl)-1-[2-[[4-[3-[[2-(2,6-dioxo-3-piperidyl)-1,3-dioxo-isoindolin-4-yl]amino]propoxy]-1-piperidyl]methyl]-1,3-dioxan-5-yl]pyrazol-4-yl]-5-morpholino-pyrazolo [1,5-a] pyrimidine-3-carboxamide] | 0.1 to 0.5 |  |  |  | 0.01 to 0.1 | 0.01 to 0.1
24 | CN(CCc1ccc(CNc2cccc3c2C(=O)N(C2CCC(=O)N(C)C2=O)C3=O)cc1)C[C@H]1CC[C@H](n2cc(NC(=O)c3cnn4ccc(N5C[C@H]6CC5CO6)nc34)c(C(F)F)n2)CC1 (stereo partly drawn) [I-452] | > 1 |  |  |  | 0.1 to 1 | > 1
25 | CN(C[C@H]1CC[C@H](n2cc(NC(=O)c3cnn4ccc(NCC5CC5)nc34)c(C(F)F)n2)CC1)[C@H]1CC[C@H](Nc2cccc3c2C(=O)N(C2CCC(=O)NC2=O)C3=O)CC1 (stereo partly drawn) [I-453] | 0.05 to 0.1 |  |  |  | 0.01 to 0.1 | < 0.01
26 | CN(C[C@H]1CC[C@H](n2cc(NC(=O)c3cnn4ccc(N5C[C@H]6CC5CO6)nc34)c(C(F)F)n2)CC1)C1CCC2(CC1)CC(Nc1cccc3c1C(=O)N(C1CCC(=O)NC1=O)C3=O)C2 (stereo partly drawn) [I-454] | 0.05 to 0.1 |  |  |  | 0.1 to 1 | 0.01 to 0.1
27 | CN(CC1CC1)c1ccn2ncc(C(=O)Nc3cn([C@H]4CC[C@H](CN(C)[C@H]5CC[C@H](Nc6cccc7c6C(=O)N(C6CCC(=O)NC6=O)C7=O)CC5)CC4)nc3C(F)F)c2n1 (stereo partly drawn) [I-455] | 0.05 to 0.1 |  |  |  | 0.01 to 0.1 | 0.01 to 0.1
28 | O=C1CCC(N2C(=O)c3cccc(NCCCOCCCN4CCN(c5ncc(-n6cc(NC(=O)c7cnn8ccc(N9CCOCC9)nc78)c(C(F)F)n6)cn5)CC4)c3C2=O)C(=O)N1 (stereo not drawn) [I-456] | < 0.05 |  |  |  | 0.1 to 1 | 0.1 to 1
29 | CN(CC1CCC(n2cc(NC(=O)c3cnn4ccc(N5C[C@H]6C[C@@H]5CO6)nc34)c(C(F)F)n2)CC1)[C@H]1C[C@H](Nc2cccc3c2C(=O)N(C2CCC(=O)NC2=O)C3=O)C1 (stereo partly drawn) [I-457] | > 1 |  |  |  | 0.1 to 1 | > 1
30 | CN(C[C@H]1CC[C@H](n2cc(NC(=O)c3cnn4ccc(N5CCOCC5)nc34)c(C(F)F)n2)CC1)[C@H]1C[C@H](Nc2cccc3c2C(=O)N(C2CCC(=O)NC2=O)C3=O)C1 (stereo partly drawn) [I-458] | > 1 |  |  |  | 0.1 to 1 | > 1
31 | CN(C[C@H]1CC[C@H](C2N=C(NC(=O)c3cnn4ccc(N5CCOCC5)nc34)C(C(F)F)=N2)CC1)C1CCC(CNc2cccc3c2C(=O)N(C2CCC(=O)NC2=O)C3=O)CC1 (stereo partly drawn) [I-459] | < 0.05 |  |  |  | 0.1 to 1 | 0.01 to 0.1
